# Results: PMC3412620 (PLoS ONE, 2012)
# T1: human pyridoxal kinase (hPL kinase) (Homo sapiens, UniProt O00764)
# T1 construct: gene PDXK; wild-type hPL kinase
# T1 sequence (O00764 1-312): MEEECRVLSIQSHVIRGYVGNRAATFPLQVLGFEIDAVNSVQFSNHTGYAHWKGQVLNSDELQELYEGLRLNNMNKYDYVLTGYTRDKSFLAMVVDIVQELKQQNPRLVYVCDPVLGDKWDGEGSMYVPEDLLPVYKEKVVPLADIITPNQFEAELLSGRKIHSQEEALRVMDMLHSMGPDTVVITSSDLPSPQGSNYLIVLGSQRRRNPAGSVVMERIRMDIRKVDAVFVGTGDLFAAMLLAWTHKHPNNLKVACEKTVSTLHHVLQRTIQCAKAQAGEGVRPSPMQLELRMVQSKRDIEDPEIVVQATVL
# Legend:
# [1] = biological target: T1, human pyridoxal kinase (hPL kinase); assay: crystal structure ([…] Å, ternary with ginkgotoxin); format: binding
# [2] = biological target: T1, human pyridoxal kinase (hPL kinase); assay: crystal structure ([…] Å), […] occupancy; density broken between ring and phosphate; format: binding
# [3] = biological target: T1, human pyridoxal kinase (hPL kinase); assay: percentage inhibition at […], spectrophotometric assay; format: biochemical
# [4] = biological target: T1, human pyridoxal kinase (hPL kinase); assay: spectrophotometric kinetic assay (PL to PLP, […] nm); format: biochemical
# [5] = substrate: Cc1ncc(CO)c(C=O)c1O; assay: spectrophotometric steady-state kinetics with purified enzyme (Km); format: biochemical, Homo sapiens; settings: MgATP PL substrate site
molecule,measurement,setting,value
Nc1ncnc2c1ncn2[C@@H]1O[C@H](COP(=O)(O)OP(=O)(O)OP(=O)(O)O)[C@@H](O)[C@H]1O [ATP],"crystal structure (2.15 Å, ternary with ginkgotoxin)",[1],We observed bound MgATP and ginkgotoxin (Fig. 4A–C) at both subunit active sites.
"COCc1c(COP(=O)(O)O)cnc(C)c1O [GIP, ginkgotoxin phosphate]","crystal structure (2.15 Å), 40% occupancy; density broken between ring and phosp",[2],We also observed what appears to be the phosphorylated product of ginkgotoxin bound at the PL sites
Cn1c(=O)c2c(ncn2C)n(C)c1=O [caffeine],inhibition at 100 µM,[3],21%
CCCn1c(=O)[nH]c(=O)c2[nH]cnc21 [enprofylline],Ki,[4],228 µM
Nc1nnc(-c2cccc(Cl)c2Cl)c(N)n1 [lamotrigine],Ki,[4],56 µM
Cn1cnc2c1c(=O)[nH]c(=O)n2C [theobromine],inhibition at 100 µM,[3],22%
"human pyridoxal kinase (hPL kinase) (Homo sapiens) (protein, wild-type hPL kinase) MEEECRVLSIQSHVIRGYVGNRAATFPLQVLGFEIDAVNSVQFSNHTGYAHWKGQVLNSDELQELYEGLRLNNMNKYDYVLTGYTRDKSFLAMVVDIVQELKQQNPRLVYVCDPVLGDKWDGEGSMYVPEDLLPVYKEKVVPLADIITPNQFEAELLSGRKIHSQEEALRVMDMLHSMGPDTVVITSSDLPSPQGSNYLIVLGSQRRRNPAGSVVMERIRMDIRKVDAVFVGTGDLFAAMLLAWTHKHPNNLKVACEKTVSTLHHVLQRTIQCAKAQAGEGVRPSPMQLELRMVQSKRDIEDPEIVVQATVL",Km,[5],58 µM
